Test results published in BindingDB's records for doi:10.1016/j.ejphar.2004.03.050 (Memorial Sloan-Kettering Cancer Center, 2004).
Values joined by “and” are separate entries in the source; they are usually repeats but may differ in a detail not shown here. Equal entries are not always repeated.

How the values were obtained:
Mu-type opioid receptor = Mu-type opioid receptor (Bos taurus, UniProt P79350)
Opioid receptor delta 1 = Opioid receptor delta 1 (Bos taurus, UniProt F1N083)
Opioid receptor delta 1, sequence (F1N083 whole entry): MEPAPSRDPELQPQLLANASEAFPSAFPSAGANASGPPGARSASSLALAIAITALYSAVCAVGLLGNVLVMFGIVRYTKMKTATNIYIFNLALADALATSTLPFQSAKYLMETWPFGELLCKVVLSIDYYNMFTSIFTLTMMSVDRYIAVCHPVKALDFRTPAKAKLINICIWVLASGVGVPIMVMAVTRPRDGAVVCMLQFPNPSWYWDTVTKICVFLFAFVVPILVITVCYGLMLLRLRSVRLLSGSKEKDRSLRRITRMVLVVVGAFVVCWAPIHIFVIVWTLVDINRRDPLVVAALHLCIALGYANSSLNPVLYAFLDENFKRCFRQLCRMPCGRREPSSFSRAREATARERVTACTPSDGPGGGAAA

Mu-type opioid receptor, sequence (P79350 whole entry): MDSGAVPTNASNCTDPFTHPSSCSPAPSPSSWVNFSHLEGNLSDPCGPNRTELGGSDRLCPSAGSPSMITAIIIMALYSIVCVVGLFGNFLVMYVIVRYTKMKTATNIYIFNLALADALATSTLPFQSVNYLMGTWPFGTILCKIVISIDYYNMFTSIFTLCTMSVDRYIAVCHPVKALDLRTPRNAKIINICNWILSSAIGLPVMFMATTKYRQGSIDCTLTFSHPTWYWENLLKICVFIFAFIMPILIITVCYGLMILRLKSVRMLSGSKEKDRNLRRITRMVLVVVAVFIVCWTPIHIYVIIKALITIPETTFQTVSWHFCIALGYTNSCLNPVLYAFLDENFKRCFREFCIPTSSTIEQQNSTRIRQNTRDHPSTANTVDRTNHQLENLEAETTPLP

Row | SMILES | Ki (Mu-type opioid receptor) | Ki (Opioid receptor delta 1)
1 | CC(=O)OC1CCC2C3Cc4ccc(O)c5c4C2(CCN3C)C1O5 (configuration not stated) [6-AcDHM] | 1.83 nM and 12.3 nM | 
2 | CN1CCC23c4c5ccc(O)c4OC2C(O)CCC3C1C5 (configuration not stated) [CAS_509-60-4] |  | 1000 nM
